Earlier results in patent US20200206184A1, “PHARMACEUTICAL COMPOSITIONS FOR THE TREATMENT OF DISEASE AND/OR SYMPTOMS IN ARTHRITIS” (priority 2004, published 2020).

Assays:
[1] = tested on: PBQ-induced writhing in mice; conditions: ranking among cannabinoids
[2] = tested on: collagen induced arthritis model in mice
[3] = tested on: patient with Mediterranean fever; conditions: 50 mg of THC

| Structure (SMILES) | TNF-α production (TNF-α) | Inhibition of PBQ-induced writhing ([1]; mice, oral administration) | Arthritis in collagen induced arthritis model [2] | Nitric oxide production (nitric oxide) | Reducing analgesia and inflammation [1] | Amount of analgesia that the patient required [3] |
| --- | --- | --- | --- | --- | --- | --- |
| C=C(C)[C@@H]1CCC(C)=C[C@H]1c1c(O)cc(CCCCC)cc1O [CBD, cannabidiol] | inhibition | most effective | suppress arthritis in a dose dependant manner | inhibition |  |  |
| CCCCCc1cc(O)c2c(c1)OC(C)(C)c1ccc(C)cc1-2 [CBN] |  |  |  |  | least effective |  |
| CCCCCc1cc(O)c2c(c1)OC(C)(C)[C@@H]1CCC(C)=C[C@@H]21 [THC, delta-9-tetrahydrocannabinol] |  |  |  |  | least effective | highly significant reduction |
